Reference: PubChem BioAssay (NCI)
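Values below derive from 48-hour exposures of cells grown in 96-well plates, with endpoints linearly interpolated between the two concentrations bracketing the appropriate inhibition level. Abbreviation: GI50, concentration required for 50% inhibition of growth. Definition used: TGI = concentration required for complete inhibition of growth.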

How the values were obtained:
Assay in all cases: NCI-60 cell line screen, 48 h
UACC-257 melanoma = tested on: UACC-257 melanoma
NCI-H522 lung = tested on: NCI-H522 lung
MDA-MB-468 breast = tested on: MDA-MB-468 breast
TK-10 renal = tested on: TK-10 renal
NCI/ADR-RES ovarian = tested on: NCI/ADR-RES ovarian
MCF7 breast = tested on: MCF7 breast
K-562 leukemia = tested on: K-562 leukemia
HCT-15 colon = tested on: HCT-15 colon
HOP-92 NSCLC = tested on: HOP-92 NSCLC
SNB-19 CNS = tested on: SNB-19 CNS
HCT-116 colon = tested on: HCT-116 colon
MDA-MB-435 = tested on: MDA-MB-435
CAKI-1 renal = tested on: CAKI-1 renal
U251 CNS = tested on: U251 CNS
HCC-2998 colon = tested on: HCC-2998 colon
HS 578T breast = tested on: HS 578T breast
ACHN renal = tested on: ACHN renal
786-0 renal = tested on: 786-0 renal
CCRF-CEM leukemia = tested on: CCRF-CEM leukemia
NCI-H226 lung = tested on: NCI-H226 lung
SR leukemia = tested on: SR leukemia
OVCAR-5 ovarian = tested on: OVCAR-5 ovarian
RXF 393 renal = tested on: RXF 393 renal
M14 melanoma = tested on: M14 melanoma
COLO 205 colon = tested on: COLO 205 colon
HL-60(TB) leukemia = tested on: HL-60(TB) leukemia
OVCAR-4 ovarian = tested on: OVCAR-4 ovarian
MDA-MB-231 breast = tested on: MDA-MB-231 breast
OVCAR-8 ovarian = tested on: OVCAR-8 ovarian
MOLT-4 leukemia = tested on: MOLT-4 leukemia

COc1csc(/C=N/NC(=O)c2[nH]c3ccc(Br)cc3c2-c2ccccc2)c1
TGI (UACC-257 melanoma): > 67.2 µM
GI50 (NCI-H522 lung): < 13.8 nM
TGI (NCI-H522 lung): 41.3 nM
GI50 (MDA-MB-468 breast): 23.2 nM
TGI (MDA-MB-468 breast): 65.1 nM
GI50 (TK-10 renal): 13.2 µM
TGI (TK-10 renal): 43.6 µM
GI50 (NCI/ADR-RES ovarian): 23.8 nM
TGI (NCI/ADR-RES ovarian): 57.4 nM
GI50 (MCF7 breast): 28 nM
TGI (MCF7 breast): 12.7 µM
GI50 (K-562 leukemia): 30.5 nM
TGI (K-562 leukemia): 13.1 µM
GI50 (HCT-15 colon): 33.2 nM
TGI (HCT-15 colon): 14.8 µM
GI50 (HOP-92 NSCLC): 920 nM
TGI (HOP-92 NSCLC): 51.2 µM
GI50 (SNB-19 CNS): 47 nM
TGI (SNB-19 CNS): 18.4 µM
GI50 (HCT-116 colon): 30.5 nM
TGI (HCT-116 colon): 1150 nM
GI50 (MDA-MB-435): 27.2 nM
TGI (MDA-MB-435): 98.5 nM
GI50 (CAKI-1 renal): 111 nM
TGI (CAKI-1 renal): 34.6 µM
GI50 (U251 CNS): 32 nM
TGI (U251 CNS): 12.3 µM
GI50 (HCC-2998 colon): 89.4 nM
TGI (HCC-2998 colon): 17.3 µM
GI50 (HS 578T breast): 34.6 nM
TGI (HS 578T breast): 22.7 µM
GI50 (ACHN renal): 63.4 nM
TGI (ACHN renal): 34.7 µM
GI50 (786-0 renal): 85.1 nM
TGI (786-0 renal): 9.69 µM
GI50 (CCRF-CEM leukemia): 29.9 nM
TGI (CCRF-CEM leukemia): 1020 nM
GI50 (NCI-H226 lung): 315 nM
TGI (NCI-H226 lung): 2160 nM
GI50 (SR leukemia): 23.5 nM
TGI (SR leukemia): 23.3 µM
GI50 (OVCAR-5 ovarian): 47.5 nM
TGI (OVCAR-5 ovarian): 53.2 µM
GI50 (RXF 393 renal): 49.6 nM
TGI (RXF 393 renal): 906 nM
GI50 (M14 melanoma): 29.2 nM
TGI (M14 melanoma): 22.5 µM
GI50 (COLO 205 colon): 26.5 nM
TGI (COLO 205 colon): 70.3 nM
GI50 (HL-60(TB) leukemia): 30.2 nM
TGI (HL-60(TB) leukemia): 180 nM
GI50 (OVCAR-4 ovarian): 5.42 µM
TGI (OVCAR-4 ovarian): > 100 µM
GI50 (MDA-MB-231 breast): 26.4 nM
TGI (MDA-MB-231 breast): 69.3 nM
GI50 (OVCAR-8 ovarian): 28.9 nM
TGI (OVCAR-8 ovarian): 2000 nM
GI50 (MOLT-4 leukemia): 46.3 nM
TGI (MOLT-4 leukemia): > 37.4 µM
